These results are taken from US12235278B2, “Compositions and methods for evaluation of antiplatelet drug sensitivity” (Beth Israel Deaconess Medical Center, Inc., priority 2018, dated 2025).

Common to all, as to format: cell-based
For experiment [1], the system named is Drp1-Ser616 phosphorylation. In words: Drp1 ratio assay with chemiluminescence format. To be noted: ADP 20 μM; for Time to maximum Drp1 ratio after exposure to agonist: arachidonic acid 500 μg/mL, SFLLRN 25 μM, elevated by 5 minutes. How it is done:
Samples were subsequently lysed and assessed by either colorimetric or chemiluminescence ELISAs. […] Samples were activated with the indicated platelet agonist [A: ADP (20 μM); […] Samples were left at room temperature for the indicated amount of time prior to freezing (−80° C.) and were subsequently analyzed using the Drp1 ratio assay with a chemiluminescence format. […] FIGS. 12A-12C show activation time studies with various platelet agonists. Platelets were exposed to agonists and subsequently analyzed using the Drp1 ratio assay with a chemiluminescence format.

The test system of experiment [2] is Drp1-Ser616 phosphorylation. Description: Western blot of Drp1 Ser616 phosphorylation in platelets. The settings on record: for Drp1 phosphorylation at Ser616 elicited by the agent: platelets incubated with the agent; for Effect on SFLLRN-induced (PAR1-mediated) Drp1-Ser616 phosphorylation: platelets. (In general: A western blot detects proteins with antibodies after separation by electrophoresis.)

The subject of experiment [3] is Drp1-Ser616 phosphorylation. In words: Drp1-Ser616 phosphorylation assay in whole blood. The settings on record: for Effect on SFLLRN-induced phospho-Drp1-Ser616 signal: whole blood; for Stimulation of Drp1-Ser616 phosphorylation: whole blood (thrombin: whole blood and platelet rich plasma).
For experiment [4], the system named is Drp1-Ser616 phosphorylation. In words: MAP kinase inhibition studies, ELISA of agonist-induced Drp1-Ser616 phosphorylation in twice washed platelets. To be noted: agonists SFLLRN, U46619, collagen, ADP or AYPGKF; SB203580 20 μM, PD0325901 5 μM, SP600125 5 μM. The method, then:
Using twice washed platelets, 400 μL aliquots were incubated at 37° C. for 30 min with SB203580 (20 μM), PD0325901 (5 μM), SP600125 (5 μM) or left untreated and then activated with respective agonist for 10 min at 37° C. Subsequently, 100 μL of 5×RIPA buffer was added and samples were lysed on ice for minimum of 15 min. Samples were stored at −80° C. until assayed by ELISA.
(§1) Capture antibody (Ms Drp1 mAb) diluted in Tris-buffered saline (TBS) was incubated on plates at RT (2 hrs) or at 4° C. overnight. […] Wells were blocked with 3% BSA in TBST for a minimum of 1.5 hrs. […] Wells were again washed with TBST and incubated with either Rb Drp1 or p-Drp1 (Ser616) mAb at RT for 1 hr.

Experiment [5] concerns Drp1-Ser637 phosphorylation. Description: Western blot of Drp1 Ser637 phosphorylation in platelets.
In experiment [6] the test system is Drp1-Ser616 phosphorylation. Description: Arachidonic acid-induced Drp1-Ser616 phosphorylation in platelets, ELISA dose response. The settings on record: Platelet; [arachidonic acid]=10 μg/mL; read-out: IC50, inhibition of arachidonic acid-induced phosphorylation of Drp1-Ser616. How it is done: Dilutions of Tyrode's buffer+3 mM aspirin were prepared. A modified platelet wash protocol was then performed. PRP [supplemented with 20% ACD (v/v) and PGE1 (1 μM)] was spun at 800 g for 12 min. After removal of the supernatant, platelet pellet was resuspended in Tyrode's buffer and allowed to rest at 37° C. for minimum of 25 min. Platelets were counted by Hemavet and were again supplemented with ACD and PGE1 before being aliquoted into microcentrifuge tubes and spun at 800 g for 12 min. Aliquots were of sufficient volume to permit a final platelet count of approximately 4×10^5/μL when platelet pellet was resuspended in 400 μL of Tyrode's buffer or Tyrode's buffer/aspirin dilution. After resuspension, samples were incubated at 37° C. for 1 hr before being activated for 10 min at 37° C. with arachidonic acid (Bio Data Corp. Horsham, PA) at a final concentration of 10 μg/mL. Samples were lysed with 100 μL 5×RIPA buffer on ice for a minimum of 15 min before being stored at −80° C. until assayed by ELISA.
as §1

Experiment [7] relates to Drp1-Ser616 phosphorylation. Description: SFLLRN-induced Drp1-Ser616 phosphorylation in washed platelets, ELISA dose response (phospho-Drp1-Ser616/total Drp1). The settings on record: Platelet; read-out: IC50, inhibition of SFLLRN-induced Drp1-Ser616 phosphorylation. How it is done:
Serial dilutions of Vorapaxar and Cangrelor were prepared in DMSO. […] Vehicle only samples were also prepared and incubated at 37° C. Samples were subsequently lysed with 5×RIPA buffer and stored at −80° C. until assayed by ELISA.
as §1

The test system of another experiment is platelet aggregation. In words: Platelet aggregometry, ADP-activated platelets. To be noted: ADP 20 μM, compared with Drp1 ratio assay.

Entries after “also recorded” stand apart in the source; their conditions may differ.

Regarding SFLLRN, in experiment [1], the “Time to maximum Drp1 ratio after exposure to agonist” value (“Time to maximum Drp1 ratio” below) is recorded as “approximately 12. 5 minutes”. The “Drp1 phosphorylation at Ser616 elicited by the agent” value (from here on “Drp1 phosphorylation”) in experiment [2] is “Phosphorylation of Drp1 at S616 was observed”. Also, the “Time at which phospho-Drp1-Ser616 signal reaches peak” value in experiment [3] (following activation of platelets by SFLLRN (FIG. 6C)) turned out to be 15 min. Moreover, in experiment [3] (stimulation of whole blood), the “Increase in phospho-Drp1-Ser616 to total Drp1” value is “greater than 2 fold”.

For the molecule `Oc1c2ccccc2c2c3c(cccc13)N=N2` [SP600125], the “Effect on agonist-induced Drp1-Ser616 phosphorylation” value in experiment [4] is “failed to inhibit”.

For the molecule collagen, in experiment [2], the “Drp1 phosphorylation” value is recorded as “Phosphorylation of Drp1 at S616 was observed”.

In the case of `CCCCCCOC(=O)[C@]1(O)C[C@@H]2O[C@@]1(C)n1c3ccccc3c3c4c(c5c6ccccc6n2c5c31)C(=O)NC4` [KT5720], in experiment [5], the “Effect on forskolin-mediated Drp1-Ser637 phosphorylation” value was “completely abolished”.

One may read the IC50 as the midpoint of a concentration-inhibition curve. For `CC(=O)Oc1ccccc1C(=O)O` [aspirin, acetylsalicylic acid], in experiment [6], the IC50 was around 1000 nM.

For `O=C(NOC[C@H](O)CO)c1ccc(F)c(F)c1Nc1ccc(I)cc1F` [PD0325901], in experiment [4], the “Effect on agonist-induced Drp1-Ser616 phosphorylation” value is listed as “modest inhibition”.

For the molecule `CCOC(=O)N[C@@H]1CC[C@@H]2[C@@H](C1)C[C@H]1C(=O)O[C@H](C)[C@H]1[C@H]2/C=C/c1ccc(-c2cccc(F)c2)cn1` [vorapaxar], the IC50 in experiment [7] was around 5 nM. For the same molecule, the “Effect on SFLLRN-induced phospho-Drp1-Ser616 signal” value in experiment [3] is “inhibited”.

In the case of thrombin, in experiment [3], the “Stimulation of Drp1-Ser616 phosphorylation” value (“Stimulation” below) is on record as “significant increases”.

`COC(=O)[C@H](c1ccccc1Cl)N1CCc2sccc2C1` [clopidogrel]: the “Effect on SFLLRN-induced phospho-Drp1-Ser616 signal” value in experiment [3] is “inhibited”.

As to `CNc1nc(Cl)nc2c1ncn2CC(COC(=O)C(C)(C)C)COC(=O)C(C)(C)C` [MRS 2395], the “Effect on ADP-induced Drp1-Ser616 phosphorylation” value in experiment [2] (platelets incubated with ADP) is given as “inhibited”.

`CCCCC[C@H](O)/C=C/[C@@H]1[C@@H](C/C=C\CCCC(=O)O)[C@H]2CO[C@@H]1C2` [U46619]: in experiment [2], the “Drp1 phosphorylation” value is listed as “Phosphorylation of Drp1 at S616 was observed”. In addition, the “Stimulation” value in experiment [3] is “significant stimulation”.

As for `C[S+]([O-])c1ccc(-c2nc(-c3ccncc3)c(-c3ccc(F)cc3)[nH]2)cc1` (stereo not shown) [SB203580], the “Effect on SFLLRN-induced (PAR1-mediated) Drp1-Ser616 phosphorylation” value in experiment [2] is recorded as “inhibited”. Further, the “Effect on SFLLRN-induced phospho-Drp1-Ser616 signal” value in experiment [3] is on record as “inhibited”. For the same molecule, in experiment [4], the “Effect on agonist-induced Drp1-Ser616 phosphorylation” value was “potently blocked”.

With `CSCCNc1nc(SCCC(F)(F)F)nc2c1ncn2[C@@H]1O[C@H](COP(=O)(O)OP(=O)(O)C(Cl)(Cl)P(=O)(O)O)[C@@H](O)[C@H]1O` [cangrelor], in experiment [7], the IC50 was around 2 nM. Besides, the “Sensitivity of Drp1 ratio assay to inhibition” value in experiment [1] (compared with platelet aggregometry) is on record as “equally sensitive”. Also, in the experiment on platelet aggregation, the “Sensitivity of platelet aggregometry to inhibition” value is “equally sensitive”.

Consider `Nc1ncnc2c1ncn2[C@@H]1O[C@H](COP(=O)(O)OP(=O)(O)O)[C@@H](O)[C@H]1O` [ADP], for which the “Time to maximum Drp1 ratio” value in experiment [1] is “approximately 12. 5 minutes”. For the same molecule, the “Drp1 phosphorylation” value in experiment [2] is reported as “resulted in 5616-Drp1 phosphorylation”.

Consider `O=C1CCc2cc(OCCCCc3nnnn3C3CCCCC3)ccc2N1` [cilostazol], for which, in experiment [2], the “Effect on SFLLRN-induced (PAR1-mediated) Drp1-Ser616 phosphorylation” value was “blocks; also recorded: sensitive; also recorded: prevents phophorylation at Ser616”.

Regarding `CCCCC/C=C\C/C=C\C/C=C\C/C=C\CCCC(=O)O` [arachidonic acid], the “Time to maximum Drp1 ratio” value in experiment [1] is given as “approximately 12. 5 minutes”. For the same molecule, in experiment [3], the “Stimulation” value is “significant stimulation”.

As to `Cn1cc(C2=C(c3cn(CCCSC(=N)N)c4ccccc34)C(=O)NC2=O)c2ccccc21` [Ro 31-8220], the “Effect on SFLLRN-induced (PAR1-mediated) Drp1-Ser616 phosphorylation” value in experiment [2] was “failed to inhibit”.
